The values that follow come from patent publication US10611727B2, “1-[1-(benzoyl)-pyrrolidine-2-carbonyl]-pyrrolidine-2-carbonitrile derivatives” (UNIVERSITAT DE BARCELONA, priority 2012, dated 2020).

Data set [1] can be described thus: Parallel artificial membrane permeability assay (PAMPA), porcine polar brain lipid extract. It is filed as in vitro ADME. To be noted: 200 μM, pH 7.4, 4 hours. As for the experimental part: Parallel artificial membrane permeability assay (PAMPA) described in Kansy M et al., J. Med. Chem. 1998; […]:1007-10 was used to determine the capacity of compounds to cross the Blood-Brain Barrier (BBB) by passive diffusion (Di L et al., Eur. J. Med. Chem. 2003; 38(3):223-32). The effective permeability (Pe) of the compounds was measured at an initial concentration of 200 μM. The buffer solution was prepared from a commercial concentrated one following the manufacturer's instructions. pH was adjusted to 7.4 using a 0.5 M NaOH solution. A stock solution of new compound was prepared in DMSO and diluted with buffer solution to a final 200 μM concentration (0.5% DMSO content). The PAMPA sandwich was separated and each donor well was filled with 200 μL of the compound solution. […] After 4 hours, the contents of the acceptor and donor compartments were analyzed by HPLC: 150 μL of each well from the donor plate and 150 μL of each well from the acceptor plate were transferred to HPLC vials, injecting each sample into a reverse-phase C18 column (150 mm×4.6 mm×5 μm, 100 Å) (100 μL/injection from the acceptor wells, 10 μL/injection from the donor wells and for t0 references). […]
The effective permeability (Pe) after 4 hours was calculated using equation 2 and the percentage of transport was calculated using equation 3: […]

The subject of data set [2] is MK-801-induced memory impairment. The data set is described as follows: Passive avoidance task, MK-801 cognition impairment model. It is filed as in vivo, rodents (mice or rats). To be noted: s.c. 35 min before shock session; MK-801 i.p. 15 min later; FIG. 2. The procedure:
The new compounds were evaluated for their efficacy as cognition enhancers in a pharmacological model for cognitive impairment. The effects of the new compounds were evaluated in untreated and MK-801-treated rodents (mice or rats). MK-801 is a non-competitive antagonist of the N-Methyl-D-aspartate (NMDA) receptor which impairs animal performance in various learning and memory paradigms (Castellano C et al., Curr. Drug Targets 2001; 2:273-83; Riedel G et al., Behav. Brain Res. 2003; 140:1-47). MK-801 also produces various effects on rodent behavior, including deficits in sensory processing, hypermotility, stereotypy and ataxia. […]
For the evaluation of the passive avoidance task, a two-compartment box with a light compartment and a dark compartment of the same dimensions was used. […] In the evaluation session, the time which the animal takes to enter the dark compartment (in seconds) was measured, as a sign of memory retention of the shock received in the dark compartment during the previous session. […] The corresponding evaluated compound was injected s.c. 35 min before the shock session, followed 15 minutes later by i.p. injection of MK-801, or PBS in the case of the control, in the same doses and volume as described for the object recognition test.

Data set [3] has as its target human prolyl oligopeptidase (Homo sapiens (Human), UniProt P48147). The data set is described as follows: POP inhibition assay (Z-G-P-AMC substrate, fluorimetric). The following applies: 100 mM Na/K phosphate buffer pH 8.0, hPOP 20 to 60 nM. It is filed as biochemical. As for the experimental part:
hPOP expression: E. coli BL21 competent cells were transformed with pETM10 hPOP. To induce expression, a pre-culture of LB medium (50 mL) containing kanamycin (50 μg/mL) was inoculated with one colony and was grown overnight at 37° C., Next day, two cultures of LB medium (500 ml) were inoculated with the overnight culture (10 mL). The inoculated cultures were grown at 37° C. and 220 rpm until the OD595 was 1.2 (2.5-3 hours). […] The column was washed with suspension buffer until the absorbance at 280 nm returned to basal level. […] POP activity was checked in all fractions and positive ones were analyzed by SDS-PAGE and stained with Biosafe Comassie Stain G-250. […] Recombinant hPOP was quantified with the Bio-Rad Protein Assay with BSA as standard, Aliquots of the recombinant enzyme were prepared and immediately frozen with liquid nitrogen and stored at −80° C.
POP activity was determined following the method described by Toide et al (Toide K et al., J. Pharmacol. Exp. Ther. 1995; 274:1370-8), using Z-G-P-AMC (N-benzyloxycarbonyl-Gly-Pro-methylcoumarinyl-7-amide) as POP substrate. […]
After preincubation, Z-G-P-AMC (10 μl, 3 mM in 40% 1,4-dioxane) was added (3 μL 1.5 mM in 40% of 1,4-dioxane, in Conditions B), and the reaction was incubated for 1 hour at 37° C. The reaction was stopped by adding sodium acetate (150 μl, 1 M, pH 4) and the formation of AMC was measured fluorimetrically. […]

human prolyl oligopeptidase, sequence (P48147 whole entry): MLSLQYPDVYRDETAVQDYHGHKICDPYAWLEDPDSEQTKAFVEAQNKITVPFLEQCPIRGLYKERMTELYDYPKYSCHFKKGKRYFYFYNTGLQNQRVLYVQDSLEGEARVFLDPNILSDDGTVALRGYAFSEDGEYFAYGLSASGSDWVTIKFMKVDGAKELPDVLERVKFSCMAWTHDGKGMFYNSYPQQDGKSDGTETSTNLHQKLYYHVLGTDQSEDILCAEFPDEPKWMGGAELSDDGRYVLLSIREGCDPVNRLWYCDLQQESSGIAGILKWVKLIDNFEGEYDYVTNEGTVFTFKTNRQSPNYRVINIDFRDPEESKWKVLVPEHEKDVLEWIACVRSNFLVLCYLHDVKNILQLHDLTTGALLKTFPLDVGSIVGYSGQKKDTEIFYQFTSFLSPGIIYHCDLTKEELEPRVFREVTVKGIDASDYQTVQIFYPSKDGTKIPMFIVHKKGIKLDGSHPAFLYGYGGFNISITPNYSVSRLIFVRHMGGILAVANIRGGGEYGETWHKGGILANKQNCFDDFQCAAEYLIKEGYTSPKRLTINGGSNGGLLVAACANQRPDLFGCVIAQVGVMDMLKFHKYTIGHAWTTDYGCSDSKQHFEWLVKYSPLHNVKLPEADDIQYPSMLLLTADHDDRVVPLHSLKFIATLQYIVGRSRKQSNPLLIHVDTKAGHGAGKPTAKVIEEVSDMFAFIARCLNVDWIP

On to `COc1cc(C(=O)N2C[C@H](OC)C[C@H]2C(=O)N2CCC[C@H]2C#N)cc(OC)c1OCc1ccccc1` [Example 1, (S)-1-((2S,4R)-1-(4-(benzyloxy)-3,5-dimethoxybenzoyl)-4-methoxypyrrolidine-2-carbonyl)pyrrolidine-2-carbonitrile], for which, in data set [1], the “% T (percentage of transport)” value is given as 4.3%.
With `COc1cc(C(=O)N2CC(F)(F)C[C@H]2C(=O)N2CCC[C@H]2C#N)cc(OC)c1OCc1ccccc1` [Example 4, (S)-1-((2S)-1-(4-(benzyloxy)-3,5-dimethoxybenzoyl)-4,4-difluoropyrrolidine-2-carbonyl)pyrrolidine-2-carbonitrile], the “Reversal of MK-801-induced memory impairment in the passive avoidance test” value in data set [2] is listed as “able to reverse MK-801-induced memory Impairment”.
Compound `COc1cc(C(=O)N2CC(F)(F)C[C@H]2C(=O)N2CCC[C@H]2C#N)cc(OCc2ccccc2)c1OCc1ccccc1` [Example 13, (S)-1-((2S)-1-(3,4-dibenzyloxy-5-methoxybenzoyl)-4,4-difluoropyrrolidine-2-carbonyl)pyrrolidine-2-carbonitrile] returned an IC50 in data set [3] of 336 nM.
